According to the supplement of paper PMC10307832:

Columns and labels:
Test in all cases: relative viability (nuclei count vs DMSO), 5 days (fraction); higher = more cells survive
Vandetanib + Palbociclib = compound: COc1cc2/c(=N/c3ccc(Br)cc3F)nc[nH]c2cc1OCC1CCN(C)CC1 [Vandetanib] + CC(=O)c1c(C)c2cnc(Nc3ccc(N4CCNCC4)cn3)nc2n(C2CCCC2)c1=O [Palbociclib] (partner 0.5 µM)
Summary of the method: (§1)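 Lung cancer cell lines in 1536-well plates were dosed by pin tool the day after seeding, either with one drug alone or with a fixed anchor-drug dose plus five library-drug doses (not always all listed) in √10 steps. After 5 days, cells were fixed and their nuclei stained in one step (final 0.05% Triton X-100, 1% formaldehyde, 1 ug/ml Hoechst), then counted on 4× images. Relative viability is the nuclei count in treated wells divided by that in vehicle wells. Values are medians of duplicate plates.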

[1] = compound: C1=CC=C2C(=C1)N=C(S2)C(C#N)C3=NC(=NC=C3)NCCC4=CN=CC=C4 + CC(C)C[C@H](NC(=O)[C@H](Cc1ccccc1)NC(=O)c1cnccn1)B(O)O [Bortezomib] (partner 0.002 µM)
Summary of the method: as §1

[2] = compound: C1=CC=C2C(=C1)N=C(S2)C(C#N)C3=NC(=NC=C3)NCCC4=CN=CC=C4 + COc1cc2c(Oc3ccc(NC(=O)C4(C(=O)Nc5ccc(F)cc5)CC4)cc3F)ccnc2cc1OCCCN1CCOCC1 [Foretinib] (partner 0.25 µM)
Summary of the method: as §1

Vandetanib + Linsitinib = compound: COc1cc2/c(=N/c3ccc(Br)cc3F)nc[nH]c2cc1OCC1CCN(C)CC1 [Vandetanib] + C[C@]1(O)C[C@@H](c2nc(-c3ccc4ccc(-c5ccccc5)nc4c3)c3c(N)nccn32)C1 [Linsitinib] (partner 1 µM)
Summary of the method: as §1

Cell Line | relative viability (Vandetanib + Palbociclib; first compound 0.02 µM) | relative viability (Vandetanib + Palbociclib; first compound 0.06325 µM) | relative viability (Vandetanib + Palbociclib; first compound 0.2 µM) | relative viability (Vandetanib + Palbociclib; first compound 0.6325 µM) | relative viability (Vandetanib + Palbociclib; first compound 2 µM) | relative viability ([1]; first compound 0.005 µM) | relative viability ([1]; first compound 0.01581 µM) | relative viability ([1]; first compound 0.05 µM) | relative viability ([1]; first compound 0.1581 µM) | relative viability ([1]; first compound 0.5 µM) | relative viability ([2]; first compound 0.005 µM) | relative viability ([2]; first compound 0.01581 µM) | relative viability ([2]; first compound 0.05 µM) | relative viability ([2]; first compound 0.1581 µM) | relative viability ([2]; first compound 0.5 µM) | relative viability (Vandetanib + Linsitinib; first compound 0.02 µM) | relative viability (Vandetanib + Linsitinib; first compound 0.06325 µM) | relative viability (Vandetanib + Linsitinib; first compound 0.2 µM) | relative viability (Vandetanib + Linsitinib; first compound 0.6325 µM) | relative viability (Vandetanib + Linsitinib; first compound 2 µM)
HARA | 0.261 | 0.224 | 0.225 | 0.293 | 0.221 | 1.22 | 1.04 | 1.14 | 1.18 | 0.859 | 0.869 | 0.876 | 0.831 | 0.975 | 0.786 | 1.03 | 0.749 | 1.04 | 0.985 | 0.989
BEN | 0.458 | 0.46 | 0.443 | 0.479 | 0.448 | 0.699 | 0.818 | 0.869 | 1.02 | 0.893 | 0.658 | 0.557 | 0.684 | 0.847 | 0.858 | 0.851 | 0.82 | 0.869 | 0.868 | 0.793
LC-2-ad | 0.466 | 0.489 | 0.526 | 0.441 | 0.422 | 1 | 1.08 | 1.01 | 1.08 | 0.944 | 0.858 | 0.994 | 0.883 | 0.921 | 0.828 | 0.818 | 0.787 | 0.841 | 0.746 | 0.417
NCI-H2009 | 0.221 | 0.3 | 0.197 | 0.25 | 0.25 | 0.936 | 0.906 | 1.03 | 1.08 | 0.993 | 1.17 | 1.2 | 1.18 | 1.32 | 1.23 | 1.17 | 1.16 | 1.3 | 1.22 | 1.19
NCI-H2085 | 0.447 | 0.479 | 0.496 | 0.498 | 0.489 | 0.861 | 1.05 | 0.781 | 1.24 | 0.94 | 0.891 | 0.811 | 0.888 | 1.03 | 0.979 | 1.01 | 0.837 | 0.855 | 0.945 | 0.793
NCI-H1666 | 0.669 | 0.605 | 0.62 | 0.621 | 0.63 | 1.12 | 0.867 | 0.673 | 0.899 | 0.822 | 0.897 | 0.951 | 0.971 | 0.981 | 0.838 | 0.836 | 0.817 | 0.793 | 0.641 | 0.619
NCI-H1993 | 0.661 | 0.628 | 0.602 | 0.581 | 0.392 | 1.02 | 1.07 | 0.886 | 1.1 | 1.06 | 0.803 | 0.768 | 0.723 | 0.783 | 0.665 | 0.803 | 0.639 | 0.662 | 0.762 | 0.675
NCI-H1437 | 0.295 | 0.32 | 0.346 | 0.302 | 0.341 | 0.475 | 0.569 | 0.848 | 0.652 | 0.429 | 1.26 | 1.3 | 1.27 | 1.32 | 1.23 | 0.994 | 0.971 | 1.04 | 1.01 | 0.966
